Our source for the IC50 values is PubChem BioAssay AID651557 (The Scripps Research Institute Molecular Screening Center, 2012).

Activity calls are given as the source filed them.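 The calls were made as follows: active = IC50 half-maximal inhibitory concentration at most 10 µM; inactive = IC50 above 10 µM.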

The target in this experiment is Melanocortin receptor 4 (Homo sapiens) (UniProt P32245). The experiment in a line: MC4R antagonists blocking beta-arrestin recruitment, late-stage follow-up, luminescence, biased ligand project, U2OS cells (AID 651557). To be noted: beta-gal complementation luminescence.
Sequence of Melanocortin receptor 4 (Homo sapiens) (P32245 whole entry, looked up): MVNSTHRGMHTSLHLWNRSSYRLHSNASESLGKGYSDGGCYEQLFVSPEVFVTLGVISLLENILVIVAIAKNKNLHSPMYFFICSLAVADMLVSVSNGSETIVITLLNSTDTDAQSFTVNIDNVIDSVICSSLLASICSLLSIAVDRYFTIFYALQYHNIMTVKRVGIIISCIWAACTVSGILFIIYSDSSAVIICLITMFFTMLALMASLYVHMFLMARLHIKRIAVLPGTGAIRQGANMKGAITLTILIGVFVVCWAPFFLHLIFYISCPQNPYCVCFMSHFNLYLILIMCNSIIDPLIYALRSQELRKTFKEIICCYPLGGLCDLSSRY
On to `CCC1CCCCN1S(=O)(=O)c1ccc(NC(=O)c2cccc(S(C)(=O)=O)c2)cc1` (configuration not stated), for which the IC50 was > 50 µM (inactive).

Turning to `C#CC(=O)N(c1ccc(OC)c(OC)c1)C(C(=O)NC1CCCC1)c1cccs1` (configuration not stated), the IC50 entry was “inactive”.

`Cc1ccccc1CN1Cc2cnnn2-c2ccccc2C1C#N` (configuration not stated): the IC50 entry is “inactive”.

On to `CCC1CCCCN1S(=O)(=O)c1ccc(NC(=O)c2ccnc(SC)n2)cc1` (configuration not stated), for which the IC50 is > 50 µM (inactive).

With `CC(=O)c1ccc(Nc2nc3ccc(C(=O)N(CCC(C)C)CCC(C)C)cc3n2CCCN2CCCCC2)cc1`, the IC50 is 0.00232 µM.

Turning to `COc1ccc(N(C(C)=O)C(C(=O)NC2CCCC2)c2cccs2)cc1OC` (configuration not stated), the IC50 was > 50 µM (inactive).

Take `CNC(=O)c1cc(Oc2ccc(NCC(=O)Nc3ccc(Cl)c(C(F)(F)F)c3)cc2)ccn1`: the IC50 was > 50 µM (inactive).

On to `CCC1CCCCN1S(=O)(=O)c1ccc(NC(=O)c2ccccc2)cc1` (configuration not stated), for which the IC50 was > 50 µM (inactive).

In the case of `COc1ccccc1C1(CCNC(C)c2cccs2)CCOC(C(C)C)C1` (configuration not stated), the IC50 is 6.73 µM.

As for `O=C1c2cccc3cccc(c23)C(=O)N1CC1CCN(CC(O)COc2ccc3ccccc3c2)CC1` (configuration not stated), the IC50 was > 50 µM (inactive).

As to `CNC(=O)c1cc(Oc2ccc(NC(=O)CNc3ccc(Cl)c(C(F)(F)F)c3)cc2)ccn1`, the IC50 was > 50 µM (inactive).

Consider `CC1CCCCN1S(=O)(=O)c1ccc(NC(=O)c2nc(S(C)(=O)=O)ncc2Cl)cc1` (configuration not stated), for which the concentration for half-maximal inhibition (IC50) was 3.55 µM.
